Values joined by “and” are separate entries in the source; they are usually repeats but may differ in a detail not shown here. Equal values may be shown once.
Key:
[1] = First-in-man (FIM) dose escalation study: NA and NAM serum levels by LC-MS/MS; assay type: in vivo, human
Method: (§1) Ten healthy volunteers were included and allocated to 2 groups of 5 subjects each. One group received NA and the other group received NAM.
In this dose escalation study, subjects ingested the test items in the morning from Monday to Thursday of every week, followed by a three-day washout period from Friday to Sunday (Table 7). Before and until 30 min after administration (or until after the second blood sampling on Mondays), subjects fasted with water only. During week 1, the subjects took one daily dose of 30 mg unformulated NA or 900 mg unformulated NAM, respectively, to measure the maximum systemic exposure and peak serum levels according to nutritional tolerable upper intake levels or levels without anticipated side effects (Table 8). From week 2 until week 6, NA microcapsules or NAM microcapsules packaged in gelatin capsules (see Example 1) were administered with weekly dose increases (Tables 7 and 8).
Blood samples were collected on Mondays and Thursdays (Table 7). On Mondays, the first blood sample was collected before ingestion of the capsules (“0 h” samples), and a second blood sample was taken after 2 hours (“2 h”), while subjects were still fasting. […] In addition, NA and NAM levels were measured in all blood samples by LC-MS/MS in an external specialised laboratory to determine exposure (see Example 1).

[2] = FIM dose escalation study: safety parameters (routine laboratory, blood pressure, body weight); details: week 1 hour 71: 30 mg free NA (NA group) or 900 mg free NAM (NAM group) daily; individual subjects
Method: as §1
In this dose escalation study, subjects ingested the test items in the morning from Monday to Thursday of every week, followed by a three-day washout period from Friday to Sunday (Table 7). Before and until 30 min after administration (or until after the second blood sampling on Mondays), subjects fasted with water only. During week 1, the subjects took one daily dose of 30 mg unformulated NA or 900 mg unformulated NAM, respectively, to measure the maximum systemic exposure and peak serum levels according to nutritional tolerable upper intake levels or levels without anticipated side effects (Table 8).
In order to determine the intake of NA and NAM via the usual diet, a nutritional protocol was completed by the subjects from Mondays to Wednesdays. Blood samples were collected on Mondays and Thursdays (Table 7). On Mondays, the first blood sample was collected before ingestion of the capsules (“0 h” samples), and a second blood sample was taken after 2 hours (“2 h”), while subjects were still fasting. On Thursdays, blood samples were taken after administration of the capsules (“72 h”). Blood samples were subjected to routine laboratory analyses at the central laboratory of the University Hospital Schleswig-Holstein in Kiel (Germany). […] Blood pressure was measured on Mondays and Thursdays (Table 7).

intestinal microbiota = assay: FIM study: microbiota analyses of stool samples (16S rRNA V3-V4 sequencing); assay type: in vivo, human; details: for abundance-based (Bray curtis) bacterial communities distance compared with a healthy normal reference group: baseline vs end of FIM study
From the text: For microbiota analyses, stool samples were collected on the first Monday of the study (day 0, baseline sample) and subsequently once weekly on Thursdays (Table 7). Total genomic DNA was extracted from feces collected longitudinally from each subject using MoBio Powersoil DNA Isolation kit (Dianova GmbH, Hamburg, Germany) according to the manufacturer's instructions. Aliquots of extracted DNA were used to amplify the V3-V4 variable region of 16S rRNA using composite primers (319F and 806R), as described by Fadrosh et al. (Microbiome 2:6, 2014). Amplification was performed by Phusion® hot start flex 2X master mix (New England Biolabs, Frankfurt/M., Germany) in a GeneAmp PCR system 9700 (Life Technologies/Applied Biosystems, Darmstadt, Germany) using the following cycling conditions: an initial denaturation of 3 min at 98° C. followed by 30 cycles of denaturation at 98° C. for 10 s, annealing at 55° C. for 30 s and elongation at 72° C. for 30 s, and a final extension step at 72° C. for 10 min. PCR performance was assessed by agarose gel electrophoresis for quality (expected amplicon size) and quantity (band intensity). Quantitative normalization was performed using the SequalPrep kit (Life/Technologies/Invitrogen, Darmstadt, Germany) to pool equal amounts of amplicons per sample. Sequencing was performed by Illumina MiSeq (2×250 sequencing kit; Illumina, San Diego, Calif., USA), which allowed to generate paired end reads with entire overlapping in contigs generation. Sequencing reads were primarily processed for quality control using the software mothur (Schloss et al. 2009, Appl. Environ. Microbiol. 75:7537). Forward and reverse reads (fastq) were assembled to contig sequences and discarded if they had more than 475 bases, any ambiguous base or more than 8 homopolymers. Sequences were aligned against the mothur-curated silva alignment database and screened to have alignment in the amplified specified V3-V4 region only. Chimeric sequences were detected with the Uchime algorithm (Edgar et al. 2011, Bioinformatics 27:2194) and were also removed. […]

[3] = Pilot pharmacokinetic (PK) study with NAM microcapsules: NA and NAM serum levels; assay type: in vivo, human
Method: The study was a self-experiment by medical investigators performed at the Department of Internal Medicine 1 of the University Hospital Schleswig-Holstein, Campus Kiel (Kiel, Germany).
In this study, subjects ingested either 900 mg of unformulated NAM (first week) or 900 mg of microencapsulated NAM packaged in gelatin capsules (second week). […] One such “low niacin meal” consisted of 150 g of apple, 150 g of red pepper and 100 g of cucumber. One niacin equivalent is defined as 1 mg of NA(M) or 60 mg of tryptophan.
Height and body weight were recorded before ingestion of the test item.

[4] = pH properties of shellac and NAM (dissolution pH, pH value); assay type: physicochemical
clinical = details: both, human, in vivo, 900 mg, mean
Method: The study consisted of four study days, each separated by one week of washout and regeneration. On the calibration day of the study, the subjects ingested 30 mg of unformulated NA (NA group) or 900 mg of unformulated NAM (NAM group) as in the FIM study (see Example 2). Different doses of microencapsulated NA or NAM packaged in gelatin capsules were administered on the other three study days: 30 mg NA or 900 mg NAM, 150 mg NA or 1500 mg NAM, and 300 mg NA or 3000 mg NAM.
After 12 h of fasting overnight (with water only), a fasted blood sample was collected. After ingestion of NA, NAM or the respective capsules, blood samples were collected every hour until 8 hours after ingestion as well as after 10 and 12 hours. During the collection of blood samples, subjects remained fasted (with water ad libitum) except for two light meals with minimal vitamin B3 content after the blood samplings of hour 3 and hour 8. One such “low niacin meal” consisted of three rice wafers, one apple and one carrot with a total of 2.3 mg of niacin equivalents.
Statistical analyses were carried out using SPSS version 22.0 (SPSS, Chicago, Ill., USA), and graphic data analysis was performed with GraphPad Prism version 5.0 (GraphPad Software, San Diego, Calif., USA). […]

accumulation (serum levels at 72 hours vs baseline levels) [1]	NAM serum levels ([3]; 900 mg free or enc. NAM, hour 1, subjects 1-3)	NAM serum levels ([3]; 900 mg free or enc. NAM, hour 2, subjects 1-3)	NAM serum levels ([3]; 900 mg free or enc. NAM, hour 3, subjects 1-3)	NAM serum levels ([3]; 900 mg free or enc. NAM, hour 4, subjects 1-3)	time of peak of NAM serum levels after ingestion ([3]; 900 mg, three healthy volunteers) [h]	concentration at 1 h ([3]; human, serum, oral, 900 mg, 900 mg free or enc. NAM, hour 1, subjects 1-3) [ng/mL]	concentration at 2 h ([3]; human, serum, oral, 900 mg, 900 mg free or enc. NAM, hour 2, subjects 1-3) [ng/mL]	concentration at 3 h ([3]; human, serum, oral, 900 mg, 900 mg free or enc. NAM, hour 3, subjects 1-3) [ng/mL]	concentration at 4 h ([3]; human, serum, oral, 900 mg, 900 mg free or enc. NAM, hour 4, subjects 1-3) [ng/mL]	pH value [4]	AUC (clinical) [ng·h/mL]	Structure (SMILES)	Blood pressure, systolic [2]	Glucose [2]	abundance-based (Bray curtis) bacterial communities distance compared with a healthy normal reference group (intestinal microbiota)	Bacteroidetes (read counts) (intestinal microbiota; before, during and at the end of the FIM study)
No NA or NAM accumulation was observed	–	–	–	–	–	–	–	–	–	–	–	O=C(O)c1cccnc1 [free NA, nicotinic acid]	120 mm Hg and 130 mm Hg (2×) and 115 mm Hg and 105 mm Hg	77 mg/dL and 92 mg/dL and 89 mg/dL and 85 mg/dL and 94 mg/dL	significant change	moderate, but overall significant increase
No NA or NAM accumulation was observed	19,900 μg/L and 20,100 μg/L	15,900 μg/L and 17,200 μg/L	9,740 μg/L and 13,100 μg/L	7,390 μg/L and 10,300 μg/L	1	11600	10300	8380	5920	6.61	78300	NC(=O)c1cccnc1 [free NAM, nicotinamide]	120 mm Hg (4×) and 105 mm Hg	87 mg/dL and 80 mg/dL and 92 mg/dL and 84 mg/dL and 83 mg/dL	trend	–

Source: patent publication US20210275513A1, “SHELLAC MICROCAPSULE FORMULATIONS AND COMPOSITIONS FOR TOPICAL INTESTINAL DELIVERY OF VITAMIN B3” (CONARIS RESEARCH INSTITUTE AG, priority 2016, published 2021)
